Results as given in the supplement of paper PMC10307832.

Key:
Dabrafenib + Vorinostat = compound: CC(C)(C)c1nc(-c2cccc(NS(=O)(=O)c3c(F)cccc3F)c2F)c(-c2ccnc(N)n2)s1 [Dabrafenib] + O=C(CCCCCCC(=O)Nc1ccccc1)NO [Vorinostat] (partner 1 µM); assay: relative viability (nuclei count vs DMSO), 5 days (fraction); higher = more cells survive
Method in brief: (§1)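 Relative viability is defined as nuclei in treated wells over nuclei in vehicle wells. Duplicate plates were run and medians reported. Lung cancer cell lines in 1536-well plates were dosed by pin tool one day after seeding, with one drug or with a fixed anchor-drug dose plus five library-drug doses (not always all listed) in √10 steps, and nuclei were counted after 5 days.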

Dabrafenib + AZD7762 = compound: CC(C)(C)c1nc(-c2cccc(NS(=O)(=O)c3c(F)cccc3F)c2F)c(-c2ccnc(N)n2)s1 [Dabrafenib] + NC(=O)Nc1cc(-c2cccc(F)c2)sc1C(=O)N[C@H]1CCCNC1 [AZD7762] (partner 0.2 µM); assay: as above
Method in brief: as §1

Row | Cell Line | relative viability (Dabrafenib + Vorinostat; first compound 0.003 µM) | relative viability (Dabrafenib + Vorinostat; first compound 0.009487 µM) | relative viability (Dabrafenib + Vorinostat; first compound 0.03 µM) | relative viability (Dabrafenib + Vorinostat; first compound 0.09487 µM) | relative viability (Dabrafenib + Vorinostat; first compound 0.3 µM) | relative viability (Dabrafenib + AZD7762; first compound 0.003 µM) | relative viability (Dabrafenib + AZD7762; first compound 0.009487 µM) | relative viability (Dabrafenib + AZD7762; first compound 0.03 µM) | relative viability (Dabrafenib + AZD7762; first compound 0.09487 µM) | relative viability (Dabrafenib + AZD7762; first compound 0.3 µM)
1 | 201T | 0.978 | 1.07 | 0.813 | 0.947 | 0.98 | 0.28 | 0.711 | 0.59 | 0.461 | 0.475
2 | A-427 | 0.793 | 0.962 | 0.787 | 0.762 | 0.866 | 0.355 | 0.808 | 0.636 | 0.646 | 0.744
3 | ABC-1 |  | 1.37 | 1.19 | 1.25 | 1.04 | 0.345 | 0.638 | 0.823 | 0.789 | 0.597
4 | BEN |  | 0.499 |  | 0.517 | 0.612 |  | 0.769 |  | 0.81 | 0.852
5 | CAL-12T | 1.06 | 0.581 | 0.804 | 0.679 | 0.795 | 0.59 | 0.626 | 0.661 | 0.594 | 0.703
6 | COR-L23 | 0.387 | 0.418 | 0.441 | 0.412 | 0.44 |  |  |  |  | 
7 | COR-L 105 | 0.779 | 0.975 | 0.806 | 0.888 | 0.911 |  |  |  |  | 
8 | ChaGo-K-1 | 0.518 | 0.727 | 0.663 | 0.694 | 0.754 | 0.303 | 0.839 | 0.855 | 0.698 | 0.879
9 | EKVX |  | 0.862 | 0.716 | 0.608 | 0.806 |  | 0.749 | 0.588 | 0.676 | 0.72
10 | EMC-BAC-2 |  | 0.459 | 0.324 | 0.281 | 0.328 |  | 1.13 | 0.967 | 0.728 | 0.782
11 | EPLC-272H | 0.401 | 0.411 | 0.409 | 0.436 | 0.498 |  | 0.283 | 0.174 | 0.207 | 0.155
12 | H3255 | 0.762 | 0.765 | 0.755 | 0.913 | 0.78 | 0.791 | 0.94 | 0.908 | 0.758 | 1.16
13 | HARA | 0.553 | 0.644 |  | 0.481 | 0.567 |  | 0.392 | 0.46 | 0.368 | 0.312
14 | HCC-15 | 0.862 | 0.844 | 0.825 | 0.768 | 0.896 | 1.17 | 1.11 | 1.09 | 1.16 | 1.09
15 | HCC-44 | 1.07 | 1.06 | 1.28 | 1.05 | 1.08 | 0.966 | 1.02 | 1.12 | 1.06 | 1
16 | HCC-78 |  | 0.507 | 0.426 | 0.511 | 0.616 |  | 0.683 | 0.466 | 0.563 | 0.872
17 | HCC-366 | 0.365 | 0.286 | 0.29 | 0.296 | 0.247 | 0.0302 | 0.288 | 0.29 | 0.309 | 0.16
18 | HCC-827 | 0.423 | 1.01 | 0.785 |  | 0.79 | 0.129 | 0.234 | 0.216 |  | 0.276

Row | Cell Line | relative viability (Dabrafenib + Vorinostat; first compound 0.003 µM) | relative viability (Dabrafenib + Vorinostat; first compound 0.009487 µM) | relative viability (Dabrafenib + Vorinostat; first compound 0.03 µM) | relative viability (Dabrafenib + Vorinostat; first compound 0.09487 µM) | relative viability (Dabrafenib + Vorinostat; first compound 0.3 µM) | relative viability (Dabrafenib + AZD7762; first compound 0.003 µM) | relative viability (Dabrafenib + AZD7762; first compound 0.009487 µM) | relative viability (Dabrafenib + AZD7762; first compound 0.03 µM) | relative viability (Dabrafenib + AZD7762; first compound 0.09487 µM) | relative viability (Dabrafenib + AZD7762; first compound 0.3 µM)
19 | HOP-62 | 0.199 | 0.806 | 0.555 | 0.341 | 0.5 | 0.088 | 0.449 | 0.493 | 0.424 | 0.452
20 | IA-LM |  | 0.957 | 0.983 | 0.829 | 1.07 |  |  |  |  | 
21 | LC-2-ad | 0.74 | 0.736 | 0.73 | 0.613 | 0.686 | 0.654 | 0.945 | 0.87 | 0.92 | 1.07
22 | LCLC-97TM1 |  | 0.928 | 0.695 | 0.283 | 0.596 |  | 0.239 | 0.25 | 0.129 | 0.224
23 | LCLC-103H | 0.627 | 0.772 | 0.576 | 0.765 | 0.816 | 0.703 | 0.834 | 0.701 | 0.794 | 0.761
24 | LK-2 | 0.333 | 0.228 | 0.268 | 0.265 | 0.34 | 0.125 | 0.449 |  | 0.433 | 0.467
25 | LOU-NH91 |  | 0.941 | 0.964 | 0.941 | 1.07 |  | 0.768 | 0.734 | 0.725 | 0.827
26 | LU99A | 0.549 | 0.492 | 0.457 | 0.406 | 0.391 | 0.55 | 0.401 | 0.368 | 0.352 | 0.261
27 | LXF-289 | 0.73 | 0.779 | 0.759 | 0.674 | 0.789 | 0.162 | 1.13 | 1.22 | 1.06 | 1.29
28 | NCI-H23 |  | 0.548 | 0.592 | 0.354 | 0.409 |  | 0.207 | 0.205 | 0.254 | 0.217
29 | NCI-H322M |  | 0.962 |  | 0.822 | 0.74 |  | 0.613 |  | 0.619 | 0.612
30 | NCI-H358 | 0.86 | 0.695 | 0.741 | 0.689 | 0.72 |  | 0.866 | 0.6 | 0.637 | 0.775
31 | NCI-H441 |  | 0.725 | 0.994 | 0.804 | 0.839 |  | 1.22 | 1.02 | 1.03 | 1.34
32 | NCI-H460 | 0.744 | 0.712 | 0.662 | 0.641 | 0.639 | 0.282 | 0.616 | 0.546 | 0.556 | 0.493
33 | NCI-H520 | 0.82 | 0.753 | 0.63 | 0.823 | 0.74 |  |  |  |  | 
34 | NCI-H522 |  | 1.06 | 0.864 | 0.815 | 0.93 |  | 0.936 | 0.717 | 0.88 | 0.841
35 | NCI-H596 |  | 0.723 | 0.416 | 0.725 | 0.515 |  | 1.2 | 0.958 | 1.14 | 1.16
36 | NCI-H647 | 0.814 | 0.529 | 0.445 | 0.401 | 0.524 |  | 0.437 |  | 0.32 | 0.43
